Numbers after ± are expanded uncertainties.
Tests used:
[1] = for molar entropy: 101.33 kPa, Small (less than 1 g) adiabatic calorimetry
[2] = Molar enthalpy of transition or fusion; conditions: Crystal; Adiabatic calorimetry

CCOS(=O)(=O)[O-].CCn1cc[n+](C)c1 [1-ethyl-3-methylimidazolium ethyl sulfate]
Conditions | Glass transition temperature [°C]
[1], Glass, Adiabatic calorimetry | -88 ± 1

CCCCn1cc[n+](C)c1.F[B-](F)(F)F [1-butyl-3-methylimidazolium tetrafluoroborate]
Conditions | Glass transition temperature [°C]
[1], Glass, Adiabatic calorimetry | -92 ± 1

CCCCCCCC[n+]1ccn(C)c1.F[B-](F)(F)F [1-methyl-3-octylimidazolium tetrafluoroborate]
[1]
Conditions | Glass transition temperature [°C] | Triple point temperature [K] | molar entropy [J/K/mol]
0 K, Glass | – | – | 13.9 ± 4.4
5 K, Crystal | – | – | 0.507 ± 0.037
5 K, Glass | – | – | 14.5 ± 4.4
10 K, Crystal | – | – | 3.61 ± 0.12
10 K, Glass | – | – | 18 ± 4.4
15 K, Crystal | – | – | 9.69 ± 0.27
15 K, Glass | – | – | 24.5 ± 4.2
20 K, Crystal | – | – | 17.96 ± 0.38
20 K, Glass | – | – | 33.1 ± 4.2
25 K, Crystal | – | – | 27.66 ± 0.47
25 K, Glass | – | – | 43.1 ± 4.2
30 K, Crystal | – | – | 38.29 ± 0.51
30 K, Glass | – | – | 54.1 ± 4.1
35 K, Crystal | – | – | 49.44 ± 0.61
35 K, Glass | – | – | 65.5 ± 4.1
40 K, Crystal | – | – | 60.82 ± 0.69
40 K, Glass | – | – | 77.1 ± 4.1
45 K, Crystal | – | – | 72.28 ± 0.79
45 K, Glass | – | – | 88.7 ± 4.1
50 K, Crystal | – | – | 83.73 ± 0.88
50 K, Glass | – | – | 100.3 ± 4
60 K, Crystal | – | – | 106.3 ± 1
60 K, Glass | – | – | 123.1 ± 4
70 K, Crystal | – | – | 128.1 ± 1.2
70 K, Glass | – | – | 145.2 ± 3.9
80 K, Crystal | – | – | 149.2 ± 1.4
80 K, Glass | – | – | 166.7 ± 3.9
90 K, Crystal | – | – | 169.5 ± 1.5
90 K, Glass | – | – | 187.6 ± 3.7
100 K, Crystal | – | – | 189.1 ± 1.7
100 K, Glass | – | – | 207.9 ± 3.8
110 K, Crystal | – | – | 208 ± 1.9
110 K, Glass | – | – | 227.7 ± 3.8
120 K, Crystal | – | – | 226.3 ± 1.9
120 K, Glass | – | – | 247 ± 3.7
130 K, Crystal | – | – | 244.2 ± 2.1
130 K, Glass | – | – | 265.9 ± 3.7
140 K, Crystal | – | – | 261.5 ± 2.2
140 K, Glass | – | – | 284.4 ± 3.7
150 K, Crystal | – | – | 278.4 ± 2.3
150 K, Glass | – | – | 302.8 ± 3.6
160 K, Crystal | – | – | 295 ± 2.4
160 K, Glass | – | – | 320.9 ± 3.7
170 K, Crystal | – | – | 311.3 ± 2.6
170 K, Glass | – | – | 338.9 ± 3.7
180 K, Crystal | – | – | 327.5 ± 2.6
180 K, Glass | – | – | 356.9 ± 3.7
190 K, Crystal | – | – | 343.6 ± 2.8
190 K, Glass | – | – | 375.5 ± 3.8
200 K, Crystal | – | – | 359.6 ± 3
200 K, Liquid | – | – | 398.7 ± 3.7
210 K, Crystal | – | – | 375.6 ± 3
210 K, Liquid | – | – | 421.4 ± 3.7
220 K, Crystal | – | – | 391.5 ± 3.2
220 K, Liquid | – | – | 442.9 ± 3.8
230 K, Crystal | – | – | 407.4 ± 3.2
230 K, Liquid | – | – | 463.6 ± 3.8
240 K, Crystal | – | – | 423.2 ± 3.4
240 K, Liquid | – | – | 483.5 ± 3.9
245.81 K, Crystal | – | – | 432.4 ± 3.4
245.81 K, Liquid | – | – | 494.7 ± 3.9
250 K, Liquid | – | – | 502.7 ± 3.9
260 K, Liquid | – | – | 521.3 ± 4.1
270 K, Liquid | – | – | 539.4 ± 4.3
280 K, Liquid | – | – | 557 ± 4.3
290 K, Liquid | – | – | 574.3 ± 4.5
298.15 K, Liquid | – | – | 588 ± 4.6
300 K, Liquid | – | – | 591.1 ± 4.6
310 K, Liquid | – | – | 607.5 ± 4.8
320 K, Liquid | – | – | 623.7 ± 4.8
330 K, Liquid | – | – | 639.5 ± 5
340 K, Liquid | – | – | 655 ± 5
350 K, Liquid | – | – | 670.3 ± 5.2
360 K, Liquid | – | – | 685.3 ± 5.4
370 K, Liquid | – | – | 700.1 ± 5.4
Crystal, Adiabatic calorimetry | – | 245.81 ± 0.04 | –
Glass, Adiabatic calorimetry | -83 ± 1 | – | –

Conditions | Molar enthalpy of transition or fusion [kcal/mol]
[2] | 3.659 ± 0.012
